One experiment deals with SK-MEL-28 tumor cells. As to the kind of experiment: Method C: Cell Growth Inhibition Assay (CellTiter-Glo), SK-MEL-28. It counts as cell-based. The note with it: Homo sapiens, SK-MEL-28, 72 h, 3 days, 4-parameter fit. An outline of the steps:
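HT-29 and HN5 were grown in high-glucose DMEM with 10% FBS, SK-MEL-28 in EMEM with nonessential amino acids, sodium pyruvate and 10% FBS, and A375P F11s in RPMI with 10% FBS and sodium pyruvate. Cells (500/well) received 1:3 compound dilutions for 3 days, with CellTiter-Glo readout and 4-parameter IC50.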
Background: In ATP-based viability assays light output follows the ATP content of the culture.

The next experiment addresses T1, ErbB2 (Homo sapiens, UniProt P04626).
T1 construct: made in house; host or cells: baculovirus expression system
As to the kind of experiment: ErbB-2 substrate phosphorylation assay (HTRF). It is filed as biochemical. The note with it: Method (A): Enzyme Mix incubated with compound at 20° C. for 1 hr, reaction started by adding Substrate Mix. In short, it runs like this:
(§1)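 Baculovirus-expressed kinase (0.8 nM EGFR or 10 nM ErbB2 in enzyme mix) with Peptide C 0.8 μM and ATP 20 μM (substrate-mix levels), MOPS pH 7.5, MnCl2; 90 min, 20 °C, HTRF anti-phosphotyrosine. Method A adds 1 h enzyme–compound preincubation; B none. pIC50, final compound 0.00027–47.6 μM.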

The subject of another experiment is Colo205 tumor cells. Put plainly: Method C: Cell Growth Inhibition Assay (CellTiter-Glo), Colo205. It counts as cell-based. The note with it: Homo sapiens, COLO 205, 72 h, 3 days, 4-parameter fit. In short, it runs like this: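 500 cells/well; next-day compound, 1:3 serial dilutions, 0.2% DMSO final; 3 d, 37° C, 5% CO2. Readout: CellTiter-Glo luminescence (total ATP as cell-number surrogate). IC50 from 4-parameter fit of % growth inhibition vs vehicle.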

For a further experiment, the system named is A375P F11s tumor cells. As to the kind of experiment: Method C: Cell Growth Inhibition Assay (CellTiter-Glo), A375P F11s. The note with it: Homo sapiens, 72 h, 3 days, 4-parameter fit. It is filed as cell-based. On the procedure:
(§2) Human breast tumor cells (BT474) were cultured in RPMI (Mediatech 50-011-PB), containing 10% FBS (JRH Biosciences 12176) and 1% penicillin-streptomycin (Invitrogen 15140). Human head and neck tumor cells (HN5) were cultured in high glucose DMEM (Mediatech 50-013-PB) containing 10% FBS and 1% penicillin-streptomycin. Human colon tumor cells (Colo205) were cultured in RPMI (Mediatech 50-020-PB) containing 10% FBS and 1% penicillin-streptomycin. Human melanoma cancer cells (SK-MEL-28) were cultured in EMEM with nonessential amino acids (Mediatech 50-011-PB) containing 10% FBS, 1% sodium pyruvate (JT Baker 3354-04), and 1% penicillin-streptomycin. Human melanoma cancer cells (A375P F11s) were cultured in RPMI (Mediatech 50-020-PB) containing 10% FBS, 1% sodium pyruvate, and 1% penicillin-streptomycin. Human colon cancer cells (HT-29) were cultured in high glucose DMEM (Mediatech 50-013-PB) containing 10% FBS and 1% penicillin-streptomycin. Human melanoma cancer cells (SK-MEL-3) were cultured in McCoy's 5A (50-025-PB) containing 15% FBS, and 1% penicillin-streptomycin. All cell lines were maintained at 37° C. in a humidified 5% CO2, 95% air incubator. Cells were harvested using trypsin/EDTA (Invitrogen 25200), counted using an haemocytometer, and plated. For 96-well assays (using white full-area NUNC plates cat. #136102), cells were plated in 105 μL at the following densities (cells/well): HN5, 500; Colo205, 500; SK-MEL-28, 500; A375P-F11s, 500; HT-29, 500; SK-MEL-3, 500; and BT474, 3000. For 384-well assays (white full-area NUNC plates, cat. #781080), cells were plated in 48 μL at the following densities (cells/well): HN5, 500; Colo205, 500; SK-MEL-28, 500; A375P-F11s, 500; HT29, 500; SK-MEL-3, 500; and BT474, 2000.
(§3) The next day, compounds were diluted as follow: For 96-well assays, 13.5 μL of compound in DMSO were diluted using nine (9) serial 1:3 dilutions of 4.5 μL in 9 μL of DMSO. Medium (270 μl/well of RPMI with 10% FBS and 1% penicillin-streptomycin) was added to the plates. Aliquots (7 μl) were added to cells in the final assay giving a final DMSO concentration of 0.2%. For 384-well assays, 15 μL of compound in DMSO were diluted using nine (9) serial 1:3 dilutions of 5 μL in 10 μL of DMSO, followed by a further dilution of 5 μL of compound with 95 μL of medium, of which 2 μL were added to cells in the final assay giving a final DMSO concentration of 0.2%. Cells were incubated at 37° C., 5% CO2 for 3 days.
(§4) Total ATP was measured (as a surrogate estimate of cell number) using CellTiter-Glo® reagent (Promega G7571). Briefly, plates were removed from the incubator and allowed to equilibrate to room temperature for 30 minutes. CellTiter-Glo® (25 μL or 55 μL for 384-well or 96-well assays, respectively) reagent was added to each well and plates were shaken on an orbital plate shaker for 2 mins. Plates were incubated without shaking for a further 30 mins and read on an LJL Analyst GT reader in luminometer mode with an integration time of 0.5 seconds per well. Percent inhibition of cell growth was calculated relative to DMSO vehicle-treated control wells. Concentration of compound required to give 50% inhibition of vehicle-treated control cell growth (IC50) was interpolated using a 4-parameter fit for determining IC50 using the following equation: Y=A+((B−A)/(1+((C/X)̂D))) where X=IC50.

The test system of another experiment is BT474 tumor cells. Put plainly: Method C: Cell Growth Inhibition Assay (CellTiter-Glo), BT474. It is filed as cell-based. The note with it: Homo sapiens, BT-474, 72 h, 3 days, 4-parameter fit.
Another experiment addresses T2, EGFR (Homo sapiens, UniProt P00533).
T2 construct: made in house; host or cells: baculovirus expression system
Put plainly: EGFR substrate phosphorylation assay (HTRF). Conditions: Method (A): Enzyme Mix incubated with compound at 20° C. for 1 hr, reaction started by adding Substrate Mix. It counts as biochemical. An outline of the steps:
as §1
On the technique in general: TR-FRET usually uses a lanthanide donor and a delayed reading to cut background.

The subject of the next experiment is SK-MEL-3 tumor cells. As to the kind of experiment: Method C: Cell Growth Inhibition Assay (CellTiter-Glo), SK-MEL-3. It is filed as cell-based. Conditions: Homo sapiens, SK-MEL3, 72 h, 3 days, 4-parameter fit. As for the experimental part:
as §2, §3, §4

Another experiment relates to HT-29 tumor cells. Put plainly: Method C: Cell Growth Inhibition Assay (CellTiter-Glo), HT-29. Conditions: Homo sapiens, HT-29, 72 h, 3 days, 4-parameter fit. It is filed as cell-based. On the procedure:
as §2, §3, §4

In another experiment the test system is HN5 tumor cells. As to the kind of experiment: Method C: Cell Growth Inhibition Assay (CellTiter-Glo), HN5. It counts as cell-based. Conditions: Homo sapiens, 72 h, 3 days, 4-parameter fit. On the procedure: as §2, §3, §4

What is called IC50 is the concentration that inhibits the measured activity by half.

Where a name gives a salt, the structure may show the parent alone. Bounds are passed on as bounds.

T2 sequence (P00533 25-1210): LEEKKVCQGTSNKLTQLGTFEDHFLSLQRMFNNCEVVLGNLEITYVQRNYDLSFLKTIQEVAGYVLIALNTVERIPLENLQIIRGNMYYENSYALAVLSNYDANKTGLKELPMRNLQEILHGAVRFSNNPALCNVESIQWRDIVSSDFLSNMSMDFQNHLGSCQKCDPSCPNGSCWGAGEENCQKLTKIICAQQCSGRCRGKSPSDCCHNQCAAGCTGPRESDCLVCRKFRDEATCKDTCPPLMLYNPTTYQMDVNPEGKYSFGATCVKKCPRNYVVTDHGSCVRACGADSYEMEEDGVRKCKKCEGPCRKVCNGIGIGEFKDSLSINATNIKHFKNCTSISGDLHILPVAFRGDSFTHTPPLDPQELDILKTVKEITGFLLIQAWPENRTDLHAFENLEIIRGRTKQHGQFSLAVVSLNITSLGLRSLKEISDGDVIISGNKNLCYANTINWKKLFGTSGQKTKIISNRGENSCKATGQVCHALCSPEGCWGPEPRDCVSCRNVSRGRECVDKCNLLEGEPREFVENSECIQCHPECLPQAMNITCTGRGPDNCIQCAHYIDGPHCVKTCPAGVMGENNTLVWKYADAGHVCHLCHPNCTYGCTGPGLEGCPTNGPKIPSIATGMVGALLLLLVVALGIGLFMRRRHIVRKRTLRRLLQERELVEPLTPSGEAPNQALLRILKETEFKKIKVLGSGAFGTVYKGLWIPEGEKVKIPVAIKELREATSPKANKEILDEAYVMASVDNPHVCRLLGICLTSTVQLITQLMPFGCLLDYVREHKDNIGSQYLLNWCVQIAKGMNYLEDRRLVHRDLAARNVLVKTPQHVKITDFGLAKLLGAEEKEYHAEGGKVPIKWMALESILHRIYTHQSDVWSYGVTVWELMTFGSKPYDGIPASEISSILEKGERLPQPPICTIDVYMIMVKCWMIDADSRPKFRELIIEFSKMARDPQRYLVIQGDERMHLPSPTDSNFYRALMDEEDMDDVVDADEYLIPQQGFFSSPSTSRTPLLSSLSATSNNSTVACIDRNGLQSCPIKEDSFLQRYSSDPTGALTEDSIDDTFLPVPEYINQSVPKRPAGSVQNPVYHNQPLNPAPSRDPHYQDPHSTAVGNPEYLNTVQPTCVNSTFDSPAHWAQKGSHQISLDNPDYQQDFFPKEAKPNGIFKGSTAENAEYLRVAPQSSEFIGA
T1 sequence (P04626 23-1255): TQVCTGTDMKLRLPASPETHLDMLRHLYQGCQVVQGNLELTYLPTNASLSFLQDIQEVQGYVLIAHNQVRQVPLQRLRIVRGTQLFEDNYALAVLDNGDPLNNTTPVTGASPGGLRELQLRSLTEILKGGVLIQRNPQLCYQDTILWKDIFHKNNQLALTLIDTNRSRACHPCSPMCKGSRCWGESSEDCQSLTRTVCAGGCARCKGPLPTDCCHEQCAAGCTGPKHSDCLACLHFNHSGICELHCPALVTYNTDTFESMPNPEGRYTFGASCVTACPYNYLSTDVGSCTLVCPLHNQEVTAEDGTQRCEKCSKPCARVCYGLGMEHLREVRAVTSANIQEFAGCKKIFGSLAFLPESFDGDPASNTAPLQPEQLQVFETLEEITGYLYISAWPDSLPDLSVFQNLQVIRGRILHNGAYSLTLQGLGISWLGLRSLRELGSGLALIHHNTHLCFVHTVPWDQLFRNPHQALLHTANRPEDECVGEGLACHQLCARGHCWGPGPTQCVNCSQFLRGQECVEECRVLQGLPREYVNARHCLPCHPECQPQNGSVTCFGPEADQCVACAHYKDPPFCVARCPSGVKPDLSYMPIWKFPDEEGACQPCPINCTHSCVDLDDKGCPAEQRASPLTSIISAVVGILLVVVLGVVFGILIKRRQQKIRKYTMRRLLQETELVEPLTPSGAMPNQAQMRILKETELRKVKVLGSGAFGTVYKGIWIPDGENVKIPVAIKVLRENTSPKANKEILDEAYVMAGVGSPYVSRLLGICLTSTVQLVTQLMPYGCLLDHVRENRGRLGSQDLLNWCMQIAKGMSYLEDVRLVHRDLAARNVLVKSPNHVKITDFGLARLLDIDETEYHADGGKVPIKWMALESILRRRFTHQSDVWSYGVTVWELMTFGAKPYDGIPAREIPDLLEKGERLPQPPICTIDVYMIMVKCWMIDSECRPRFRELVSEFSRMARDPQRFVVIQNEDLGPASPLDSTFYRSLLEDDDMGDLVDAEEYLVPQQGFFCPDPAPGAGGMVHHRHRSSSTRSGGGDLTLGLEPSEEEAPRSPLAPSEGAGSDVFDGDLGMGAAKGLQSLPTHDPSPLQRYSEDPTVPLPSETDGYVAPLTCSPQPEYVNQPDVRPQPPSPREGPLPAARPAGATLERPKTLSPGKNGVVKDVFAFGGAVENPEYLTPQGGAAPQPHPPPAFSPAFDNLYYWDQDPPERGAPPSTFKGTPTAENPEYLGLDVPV

On to `CN(C)CCOc1ccc(Nc2nccc(-c3sc(N(C)C)nc3-c3cccc(NC(=O)c4c(F)cccc4F)c3)n2)cc1Cl` [Example 37, N-{3-[5-{2-[(3-Chloro-4-{[2-(dimethylamino)ethyl]oxy}phenyl)amino]-4-pyrimidinyl}-2-(dimethylamino)-1,3-thiazol-4-yl]phenyl}-2,6-difluorobenzamide], for which the half-maximal inhibitory concentration (IC50) in the experiment with SK-MEL-28 tumor cells was 100 to 1000 nM; at ErbB2, below 100 nM; in the experiment on Colo205 tumor cells, 100 to 1000 nM; with A375P F11s tumor cells it was 100 to 1000 nM; in the experiment with BT474 tumor cells, 100 to 1000 nM; on EGFR, below 100 nM. Further, the IC50 with SK-MEL-3 tumor cells was above 1000 nM; in the experiment on HT-29 tumor cells it was 100 to 1000 nM; with HN5 tumor cells, 100 to 1000 nM.
For `CCc1nc(-c2cccc(NC(=O)c3c(F)cccc3F)c2)c(-c2ccnc(Nc3ccc(N4CCOCC4)nc3)n2)s1` [Example 118, N-{3-[2-Ethyl-5-(2-{[6-(4-morpholinyl)-3-pyridinyl]amino}-4-pyrimidinyl)-1,3-thiazol-4-yl]phenyl}-2,6-difluorobenzamide trifluoroacetate], the IC50 was above 1000 nM in the experiment on SK-MEL-28 tumor cells; above 1000 nM in the experiment on Colo205 tumor cells; above 1000 nM in the experiment with A375P F11s tumor cells; 100 to 1000 nM in the experiment on BT474 tumor cells; above 1000 nM in the experiment on SK-MEL-3 tumor cells; above 1000 nM with HT-29 tumor cells. The IC50 in the experiment with HN5 tumor cells is 100 to 1000 nM.
On to `CN(C)CCOc1cccc(Nc2nccc(-c3sc(N4CCCCC4)nc3-c3cccc(NC(=O)c4c(F)cccc4F)c3)n2)c1` [Example 74, N-{3-[5-{2-[(3-{[2-(Dimethylamino)ethyl]oxy}phenyl)amino]-4-pyrimidinyl}-2-(1-piperidinyl)-1,3-thiazol-4-yl]phenyl}-2,6-difluorobenzamide], for which the IC50 is above 1000 nM in the experiment with SK-MEL-28 tumor cells; below 100 nM at ErbB2; 100 to 1000 nM with Colo205 tumor cells; 100 to 1000 nM with A375P F11s tumor cells; 100 to 1000 nM in the experiment with BT474 tumor cells; below 100 nM at EGFR. Moreover, the figures for the IC50 in the experiment with SK-MEL-3 tumor cells and in the experiment on HT-29 tumor cells were above 1000 nM and 100 to 1000 nM, respectively.
On to `CN(C)CCOc1ccc(Nc2nccc(-c3sc(-c4ccc(O)cc4)nc3-c3cccc(NC(=O)c4cc(F)ccc4F)c3)n2)cc1Cl` [Example 140, N-{3-[5-{2-[(3-Chloro-4-{[2-(dimethylamino)ethyl]oxy}phenyl)amino]-4-pyrimidinyl}-2-(4-hydroxyphenyl)-1,3-thiazol-4-yl]phenyl}-2,5-difluorobenzamide], for which the IC50 was 100 to 1000 nM with SK-MEL-28 tumor cells; below 100 nM on ErbB2; 100 to 1000 nM in the experiment with Colo205 tumor cells; 100 to 1000 nM with BT474 tumor cells; below 100 nM on EGFR; 100 to 1000 nM in the experiment on HN5 tumor cells.
In the case of `CN(C)CCOc1cccc(Nc2nccc(-c3sc(NCCCN4CCOCC4)nc3-c3cccc(NC(=O)c4c(F)cccc4F)c3)n2)c1` [Example 29, N-[3-(5-{2-[(3-{[2-(Dimethylamino)ethyl]oxy}phenyl)amino]-4-pyrimidinyl}-2-{[3-(4-morpholinyl)propyl]amino}-1,3-thiazol-4-yl)phenyl]-2,6-difluorobenzamide], the IC50 in the experiment with SK-MEL-28 tumor cells is above 1000 nM; at ErbB2, below 100 nM; in the experiment with Colo205 tumor cells, 100 to 1000 nM; in the experiment with BT474 tumor cells, below 100 nM; on EGFR, below 100 nM; with HN5 tumor cells, below 100 nM.
For the compound `CCN(CC)CCOc1cccc(Nc2nccc(-c3scnc3-c3cccc(NC(=O)c4cc(F)ccc4F)c3)n2)c1` [Example 97, N-[3-(5-{2-[(3-{[2-(Diethylamino)ethyl]oxy}phenyl)amino]-4-pyrimidinyl}-1,3-thiazol-4-yl)phenyl]-2,5-difluorobenzamide], the IC50 was above 1000 nM in the experiment with SK-MEL-28 tumor cells; below 100 nM on ErbB2; above 1000 nM in the experiment with Colo205 tumor cells; 100 to 1000 nM in the experiment with BT474 tumor cells; below 100 nM at EGFR; 100 to 1000 nM in the experiment on HN5 tumor cells.

Values taken from US20110098296A1, “Thiazole And Oxazole Kinase Inhibitors” (priority 2007, published 2011).
